The supplement of paper PMC7661543
± gives the standard deviation of the averaged measurements.

Each molecule was assayed on SKBR3 (assay: relative cell number vs DMSO control (72 h) (% of DMSO); higher = less growth inhibition (more cells)). Conditions: sgRNA knockout: sgNT, 10 nM.
Method: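 QMAP-Seq: a pool of 5 breast cancer cell lines (ZR-75-1, SKBR3, HCC-38, MDA-MB-231, BT-20), each carrying 12 doxycycline-inducible Cas9 sgRNA perturbations (11 knockouts plus non-targeting sgNT), was treated with compounds for 72 h at four 10-fold doses (10 nM-10 uM or 1 nM-1 uM range). Barcodes were amplified and sequenced, and cell number was interpolated from 293T spike-in standard curves. The result is expressed as % of the median of DMSO wells. Two biological replicates.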

Row | Structure (SMILES) | relative cell number
1 | C=C1C(=O)O[C@H]2[C@H]1CC/C(C)=C/CC[C@@]1(C)O[C@@H]21 [Parthenolide] | 98.3 ± 24
2 | COc1cc(/C=C/C(=O)CC(=O)/C=C/c2ccc(O)c(OC)c2)ccc1O [Curcumin] | 106 ± 29
3 | Nc1nc(OCc2cc(Br)cs2)c2[nH]cnc2n1 [Lomeguatrib] | 111 ± 1.7
4 | C=C(c1ccc(C(=O)O)cc1)c1cc2c(cc1C)C(C)(C)CCC2(C)C [Bexarotene] | 107 ± 4.7
5 | Clc1ccc(C2(c3ccc(-c4cn[nH]c4)cc3)CCNCC2)cc1 [AT7867] | 70.8 ± 4.4
6 | CS(=O)(=O)c1cccc(CNc2nc(Nc3ccc4c(c3)CCC(=O)N4)ncc2C(F)(F)F)c1 | 85.7 ± 19
7 | N#Cc1ccc(COC[C@H]2O[C@@H](n3c(NCc4ccc(Cl)c(Cl)c4)nc4c(N)ncnc43)[C@H](O)[C@@H]2O)cc1 | 105 ± 14
8 | CN(Cc1cnc2nc(N)nc(N)c2n1)c1ccc(C(=O)N[C@@H](CCC(=O)O)C(=O)O)cc1 [Methotrexate] | 116 ± 42
9 | CC(C)CC(=O)Nc1n[nH]c2c1CN(C(=O)C1CCN(C)CC1)C2(C)C | 108 ± 26
10 | CCCc1nn(C)c2c(=O)[nH]c(-c3cc(S(=O)(=O)N4CCN(C)CC4)ccc3OCC)nc12 [Sildenafil] | 82.23 ± 0.8
11 | O=C1CCC(N2C(=O)c3ccccc3C2=O)C(=O)N1 (stereo not drawn) [Thalidomide] | 109 ± 39
12 | CC(C)(C(=O)NCC(F)(F)C(F)(F)F)C(=O)N[C@@H]1C(=O)Nc2ccccc2-c2ccccc21 | 91 ± 1.3
13 | CC[C@@]1(O)C(=O)OCc2c1cc1n(c2=O)Cc2cc3c(CN(C)C)c(O)ccc3nc2-1 [Topotecan] | 58.7 ± 5.9
14 | C=CC(=O)Nc1cc2c(Nc3ccc(F)c(Cl)c3)ncnc2cc1OCCCN1CCOCC1 [Canertinib] | 81.6 ± 12

Same assay, conditions: sgRNA knockout: sgNT, 100 nM

Row | Structure (SMILES) | relative cell number
15 | FC(F)c1nc2ccccc2n1-c1nc(N2CCOCC2)nc(N2CCOCC2)n1 [ZSTK474] | 85 ± 15
16 | Cc1nc(Nc2ncc(C(=O)Nc3c(C)cccc3Cl)s2)cc(N2CCN(CCO)CC2)n1 [Dasatinib] | 96.7 ± 42
17 | CN/C(=N\CCSCc1nc[nH]c1C)NC#N [Cimetidine] | 141 ± 62
18 | CC(C)C[C@H](NC(=O)[C@H](Cc1ccccc1)NC(=O)c1cnccn1)B(O)O [Bortezomib] | 14.2 ± 4.1
19 | COc1cc(CCc2cc(NC(=O)c3ccc(N4CC(C)NC(C)C4)cc3)n[nH]2)cc(OC)c1 (stereo not drawn) [AZD4547] | 83 ± 9.8
20 | CC(C)(C)c1ccc(S(=O)(=O)NCc2ccc(C(=O)Nc3cccnc3)cc2)cc1 [STF31] | 83.52 ± 0.49
21 | CCC[C@H](NC(=O)/C(C#N)=C/c1cccc(Br)n1)c1ccccc1 [WP1130] | 51.2 ± 6.4
22 | O=[N+]([O-])c1ccc(O)c2ncccc12 [Nitroxoline] | 91.1 ± 3.5
23 | O=C1c2c(O)ccc(O)c2C(=O)c2c(NCCNCCO)ccc(NCCNCCO)c21 [Mitoxantrone] | 22.3 ± 5.1
24 | N[C@@H](CC(=O)N1CCn2c(nnc2C(F)(F)F)C1)Cc1cc(F)c(F)cc1F [Sitagliptin] | 89.5 ± 3.5
25 | CC(C)[C@H](O)C(=O)N[C@@H](C)C(=O)N[C@@H]1C(=O)N(C)CCc2ccccc21 [Semagacestat] | 83.1 ± 31
26 | C=C1C(=O)O[C@H]2[C@H]1CC/C(C)=C/CC[C@@]1(C)O[C@@H]21 [Parthenolide] | 122 ± 28
27 | COc1cc(/C=C/C(=O)CC(=O)/C=C/c2ccc(O)c(OC)c2)ccc1O [Curcumin] | 82.86 ± 0.028
28 | Nc1nc(OCc2cc(Br)cs2)c2[nH]cnc2n1 [Lomeguatrib] | 68.1 ± 13
29 | C=C(c1ccc(C(=O)O)cc1)c1cc2c(cc1C)C(C)(C)CCC2(C)C [Bexarotene] | 72.8 ± 16
30 | Clc1ccc(C2(c3ccc(-c4cn[nH]c4)cc3)CCNCC2)cc1 [AT7867] | 102 ± 5
31 | CS(=O)(=O)c1cccc(CNc2nc(Nc3ccc4c(c3)CCC(=O)N4)ncc2C(F)(F)F)c1 | 110.3 ± 0.38
32 | N#Cc1ccc(COC[C@H]2O[C@@H](n3c(NCc4ccc(Cl)c(Cl)c4)nc4c(N)ncnc43)[C@H](O)[C@@H]2O)cc1 | 139 ± 29
33 | CN(Cc1cnc2nc(N)nc(N)c2n1)c1ccc(C(=O)N[C@@H](CCC(=O)O)C(=O)O)cc1 [Methotrexate] | 41 ± 1.5
34 | CC(C)CC(=O)Nc1n[nH]c2c1CN(C(=O)C1CCN(C)CC1)C2(C)C | 61.4 ± 27
35 | CCCc1nn(C)c2c(=O)[nH]c(-c3cc(S(=O)(=O)N4CCN(C)CC4)ccc3OCC)nc12 [Sildenafil] | 91.7 ± 25
36 | O=C1CCC(N2C(=O)c3ccccc3C2=O)C(=O)N1 (stereo not drawn) [Thalidomide] | 59.4 ± 1.9
37 | CC(C)(C(=O)NCC(F)(F)C(F)(F)F)C(=O)N[C@@H]1C(=O)Nc2ccccc2-c2ccccc21 | 133 ± 6.6
38 | CC[C@@]1(O)C(=O)OCc2c1cc1n(c2=O)Cc2cc3c(CN(C)C)c(O)ccc3nc2-1 [Topotecan] | 34.7 ± 19
39 | C=CC(=O)Nc1cc2c(Nc3ccc(F)c(Cl)c3)ncnc2cc1OCCCN1CCOCC1 [Canertinib] | 56.6 ± 18

Same assay, conditions: sgRNA knockout: sgNT, 1000 nM

Row | Structure (SMILES) | relative cell number
40 | FC(F)c1nc2ccccc2n1-c1nc(N2CCOCC2)nc(N2CCOCC2)n1 [ZSTK474] | 60.2 ± 41
41 | Cc1nc(Nc2ncc(C(=O)Nc3c(C)cccc3Cl)s2)cc(N2CCN(CCO)CC2)n1 [Dasatinib] | 107 ± 28
42 | CN/C(=N\CCSCc1nc[nH]c1C)NC#N [Cimetidine] | 107.1 ± 0.53
43 | CC(C)C[C@H](NC(=O)[C@H](Cc1ccccc1)NC(=O)c1cnccn1)B(O)O [Bortezomib] | 9.59 ± 4
44 | COc1cc(CCc2cc(NC(=O)c3ccc(N4CC(C)NC(C)C4)cc3)n[nH]2)cc(OC)c1 (stereo not drawn) [AZD4547] | 94.1 ± 33
45 | CC(C)(C)c1ccc(S(=O)(=O)NCc2ccc(C(=O)Nc3cccnc3)cc2)cc1 [STF31] | 74.8 ± 10
46 | CCC[C@H](NC(=O)/C(C#N)=C/c1cccc(Br)n1)c1ccccc1 [WP1130] | 111 ± 7.9
47 | O=[N+]([O-])c1ccc(O)c2ncccc12 [Nitroxoline] | 43.59 ± 0.14
48 | O=C1c2c(O)ccc(O)c2C(=O)c2c(NCCNCCO)ccc(NCCNCCO)c21 [Mitoxantrone] | 4.5 ± 0.26
49 | N[C@@H](CC(=O)N1CCn2c(nnc2C(F)(F)F)C1)Cc1cc(F)c(F)cc1F [Sitagliptin] | 82.6 ± 2.9
50 | CC(C)[C@H](O)C(=O)N[C@@H](C)C(=O)N[C@@H]1C(=O)N(C)CCc2ccccc21 [Semagacestat] | 72.2 ± 6.8
51 | C=C1C(=O)O[C@H]2[C@H]1CC/C(C)=C/CC[C@@]1(C)O[C@@H]21 [Parthenolide] | 96.6 ± 16
52 | COc1cc(/C=C/C(=O)CC(=O)/C=C/c2ccc(O)c(OC)c2)ccc1O [Curcumin] | 111 ± 7.2
53 | Nc1nc(OCc2cc(Br)cs2)c2[nH]cnc2n1 [Lomeguatrib] | 104 ± 14
54 | C=C(c1ccc(C(=O)O)cc1)c1cc2c(cc1C)C(C)(C)CCC2(C)C [Bexarotene] | 71.6 ± 34
55 | Clc1ccc(C2(c3ccc(-c4cn[nH]c4)cc3)CCNCC2)cc1 [AT7867] | 59.38 ± 0.082
56 | CS(=O)(=O)c1cccc(CNc2nc(Nc3ccc4c(c3)CCC(=O)N4)ncc2C(F)(F)F)c1 | 87.3 ± 18
57 | N#Cc1ccc(COC[C@H]2O[C@@H](n3c(NCc4ccc(Cl)c(Cl)c4)nc4c(N)ncnc43)[C@H](O)[C@@H]2O)cc1 | 106 ± 24
58 | CN(Cc1cnc2nc(N)nc(N)c2n1)c1ccc(C(=O)N[C@@H](CCC(=O)O)C(=O)O)cc1 [Methotrexate] | 22.1 ± 12
59 | CC(C)CC(=O)Nc1n[nH]c2c1CN(C(=O)C1CCN(C)CC1)C2(C)C | 30 ± 7.5
60 | CCCc1nn(C)c2c(=O)[nH]c(-c3cc(S(=O)(=O)N4CCN(C)CC4)ccc3OCC)nc12 [Sildenafil] | 62.7 ± 0.37
61 | O=C1CCC(N2C(=O)c3ccccc3C2=O)C(=O)N1 (stereo not drawn) [Thalidomide] | 115 ± 17
62 | CC(C)(C(=O)NCC(F)(F)C(F)(F)F)C(=O)N[C@@H]1C(=O)Nc2ccccc2-c2ccccc21 | 99 ± 36
63 | CC[C@@]1(O)C(=O)OCc2c1cc1n(c2=O)Cc2cc3c(CN(C)C)c(O)ccc3nc2-1 [Topotecan] | 12.1 ± 2.9
